# Entries after “also recorded” stand apart in the source; their conditions may differ. Residues, ends and D or L forms follow the SMILES beside them. No end group written: not given here. *: point of attachment. X1 = C[C@]12CCC(=O)C=C1CC[C@@H]1[C@@H]2[C@@H](O)C[C@@]2(C)[C@H]1CC[C@]2(O)C(=O)COC(=O)CCC(=O)*
# Columns and labels:
# [1] = system: Fresh articular cartilage; conditions: in the presence of enzyme
# cartilage sections = test: Coupling of peptide conjugates to cartilage sections via tTG, fluorescein anti-biotin staining; assay type: biochemical, bovine
# Procedure: Partial depolymerization of glycosaminoglycans in the tissue was accomplished by digesting with chondroitinase ABC at 40 mU/mL in 50 mM Tris, 70 mM sodium acetate and 0.01% bovine serum albumin (BSA) at pH 8 for 30 minutes at 37° C. Samples were then rinsed 3 times with TBS and blocked with 1% BSA in TBS for one hour at room temperature. The tTG reaction conditions used were similar to a previously described method. (See, Aeschlimann D, Wetterwald A, Fleisch H, and Paulsson M. Expression of tissue transglutaminase in skeletal tissues correlates with events of terminal differentiation of chondrocytes. Journal of Cell Biology 1993; 120: 1461-1470.) The cartilage sections were incubated in 500 μL of 50 μM peptide or peptide-PEG conjugate, 0.5 U/mL tTG, 5 mM CaCl2, 2.5 mM dithiothreitol and 100 mM Tris, at pH 8.3 for 30 min at 37° C. Control experiments were performed in the absence of tTG. After completion of the tTG reaction, the solution was removed and samples were rinsed 3 times with 1% BSA in TBS for 5 minutes each. The cartilage sections were then incubated with fluorescein conjugated anti-biotin antibody at 10 μg/mL in 1% BSA in TBS for 2 hours at room temperature. Samples were rinsed 4 times with TBS for 5 minutes each, followed by blocking with 10% donkey serum for 1 hour and incubation with rabbit anti-collagen II antibody in TBS containing 10% donkey serum for 1 hour. The samples were rinsed 3 times with 10% donkey serum in TBS and then incubated with Texas Red conjugated donkey anti-rabbit antibody. Samples were rinsed again with TBS and then imaged using a Leica epifluorescent microscope (λex=495 nm, λem=520 for fluorescein and λex=596 nm, λem=620 for Texas Red) and a SPOT RT digital camera (Diagnostic Instruments, Sterling Heights, Mich.).
# Images were analyzed using Metamorph image analysis software (Molecular Devices, Sunnyvale, Calif.). Fluorescein fluorescence was measured at three randomly selected areas of the middle zone on each cartilage section image and then averaged. A similar procedure was utilized to determine Texas Red fluorescence. The fluorescein fluorescence intensity was then normalized to the fluorescence of the Texas Red for each cartilage section image in order to account for potential ECM differences between sections. Finally, the average green fluorescence for each peptide-PEG conjugate was then normalized by dividing by the red fluorescence.
# Fibronectin = biological target: T1, Fibronectin (Homo sapiens, UniProt P02751); test: Reaction of peptide conjugates with cartilage ECM protein in solution via tTG; assay type: biochemical; conditions: 500 μM conjugate, 0.05 U/mL tTG, 30 min at 37° C.
# T1 construct: purchased Sigma, St. Louis, Mo
# T1 sequence (P02751 32-2477, species assumed): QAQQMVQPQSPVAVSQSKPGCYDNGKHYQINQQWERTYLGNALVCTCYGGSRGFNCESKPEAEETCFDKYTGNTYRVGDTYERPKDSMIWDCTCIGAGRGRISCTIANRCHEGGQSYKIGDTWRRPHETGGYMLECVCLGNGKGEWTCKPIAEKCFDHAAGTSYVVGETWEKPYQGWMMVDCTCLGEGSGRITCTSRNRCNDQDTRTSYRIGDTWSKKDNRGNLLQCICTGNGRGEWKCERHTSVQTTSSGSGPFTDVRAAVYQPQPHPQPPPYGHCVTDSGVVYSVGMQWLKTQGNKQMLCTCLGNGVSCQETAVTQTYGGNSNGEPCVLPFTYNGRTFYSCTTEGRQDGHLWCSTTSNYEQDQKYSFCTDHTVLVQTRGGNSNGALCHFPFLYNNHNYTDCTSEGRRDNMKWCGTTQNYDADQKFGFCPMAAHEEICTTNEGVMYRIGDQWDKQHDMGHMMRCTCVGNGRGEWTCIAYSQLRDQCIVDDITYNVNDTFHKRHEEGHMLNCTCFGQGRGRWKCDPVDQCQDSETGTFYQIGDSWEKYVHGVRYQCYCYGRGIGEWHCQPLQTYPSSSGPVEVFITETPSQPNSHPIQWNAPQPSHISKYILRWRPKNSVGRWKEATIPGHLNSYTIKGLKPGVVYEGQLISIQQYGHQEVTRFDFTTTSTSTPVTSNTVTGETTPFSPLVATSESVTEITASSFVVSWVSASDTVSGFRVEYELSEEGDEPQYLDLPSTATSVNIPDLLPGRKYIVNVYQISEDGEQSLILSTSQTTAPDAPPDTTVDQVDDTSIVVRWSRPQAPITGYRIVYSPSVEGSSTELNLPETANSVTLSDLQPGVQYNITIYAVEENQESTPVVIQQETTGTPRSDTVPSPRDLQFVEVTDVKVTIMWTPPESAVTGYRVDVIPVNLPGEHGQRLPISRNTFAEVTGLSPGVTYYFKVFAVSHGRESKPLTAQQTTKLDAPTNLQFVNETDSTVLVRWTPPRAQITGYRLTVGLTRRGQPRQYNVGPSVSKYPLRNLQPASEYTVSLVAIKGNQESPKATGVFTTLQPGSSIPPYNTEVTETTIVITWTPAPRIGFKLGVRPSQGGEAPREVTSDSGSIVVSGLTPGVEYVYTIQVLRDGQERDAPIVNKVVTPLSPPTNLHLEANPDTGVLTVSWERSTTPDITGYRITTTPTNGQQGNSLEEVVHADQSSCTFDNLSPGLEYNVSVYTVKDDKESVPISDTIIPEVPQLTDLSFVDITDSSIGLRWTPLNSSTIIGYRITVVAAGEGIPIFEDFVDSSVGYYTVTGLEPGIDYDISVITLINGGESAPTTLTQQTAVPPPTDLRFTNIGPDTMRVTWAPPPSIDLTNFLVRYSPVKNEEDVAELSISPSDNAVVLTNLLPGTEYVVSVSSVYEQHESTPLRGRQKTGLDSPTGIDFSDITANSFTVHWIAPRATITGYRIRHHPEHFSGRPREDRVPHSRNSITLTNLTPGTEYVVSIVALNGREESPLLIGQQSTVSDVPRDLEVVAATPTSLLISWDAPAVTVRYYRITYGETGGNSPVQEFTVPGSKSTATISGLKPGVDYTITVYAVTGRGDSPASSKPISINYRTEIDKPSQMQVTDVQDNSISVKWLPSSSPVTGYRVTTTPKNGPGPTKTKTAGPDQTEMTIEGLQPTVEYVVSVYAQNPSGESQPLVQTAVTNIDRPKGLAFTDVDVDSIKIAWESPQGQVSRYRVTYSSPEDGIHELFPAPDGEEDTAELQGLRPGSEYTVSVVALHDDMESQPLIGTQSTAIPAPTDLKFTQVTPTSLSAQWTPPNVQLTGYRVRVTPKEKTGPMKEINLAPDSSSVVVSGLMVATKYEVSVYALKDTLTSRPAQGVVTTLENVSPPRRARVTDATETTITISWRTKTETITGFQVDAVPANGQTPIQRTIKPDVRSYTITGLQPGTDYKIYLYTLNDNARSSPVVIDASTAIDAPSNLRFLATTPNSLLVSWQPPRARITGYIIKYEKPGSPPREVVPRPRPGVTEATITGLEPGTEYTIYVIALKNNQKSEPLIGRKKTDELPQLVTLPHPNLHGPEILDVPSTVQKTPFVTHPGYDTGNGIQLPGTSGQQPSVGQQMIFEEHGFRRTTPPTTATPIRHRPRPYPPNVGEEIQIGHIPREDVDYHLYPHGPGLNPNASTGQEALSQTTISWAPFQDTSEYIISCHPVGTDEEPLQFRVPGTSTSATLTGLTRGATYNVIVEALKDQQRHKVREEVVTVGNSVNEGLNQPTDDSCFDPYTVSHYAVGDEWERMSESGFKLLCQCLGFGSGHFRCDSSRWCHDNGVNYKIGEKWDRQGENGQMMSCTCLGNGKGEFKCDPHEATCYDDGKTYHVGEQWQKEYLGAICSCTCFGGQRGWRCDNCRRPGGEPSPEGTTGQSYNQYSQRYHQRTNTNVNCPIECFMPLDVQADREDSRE
# Procedure: (§1) Fibronectin, collagen II, osteonectin, and osteopontin were separately combined at 0.1% (w/v) in 100 mM Tris and 5 mM CaCl2 with 500 μM peptide-PEG conjugates and 0.05 U/mL tTG. The reaction was allowed to proceed for 30 min at 37° C. and then stopped with the addition of iodoacetamide (1 mM final concentration). Control experiments without transglutaminse were also performed. The proteins were then separated using SDS-PAGE with either 7.5% fibronectin and collagen II) or 10% (osteonectin and osteopontin) gels, transferred to PVDF membranes which were then blocked with 2% BSA in TBS with 0.1% Tween (TBS-T). The modified proteins were probed with peroxidase conjugated ExtrAvidin. Detection of bound ExtrAvidin was accomplished using ECL Plus Western Blotting Detection Reagents and imaged on a Storm 860 imager (GE Healthcare Biosciences, Piscataway, N.J.). Band intensities were measured using ImageQuant (GE Healthcare Biosciences). Statistical analysis was performed using one-way ANOVA and Tukey's post-hoc test with 95% confidence intervals with SPSS (SPSS, Chicago, Ill.). Reactions of B72Q and B72K with osteonectin and osteopontin were dialyzed against 10 mM acetic acid and then analyzed by MALDI-TOF MS.
# collagen II = biological target: T2, collagen II (Homo sapiens, UniProt P02458); test: as above; assay type: biochemical; conditions: type II collagen, 500 μM conjugate, 0.05 U/mL tTG, 30 min at 37° C.
# T2 construct: isolated by pepsin digestion, which yields primarily the triple helical region of collagen II; purchased Chondrex, Redmond, Wash
# T2 sequence (P02458 201-1214 limits assumed): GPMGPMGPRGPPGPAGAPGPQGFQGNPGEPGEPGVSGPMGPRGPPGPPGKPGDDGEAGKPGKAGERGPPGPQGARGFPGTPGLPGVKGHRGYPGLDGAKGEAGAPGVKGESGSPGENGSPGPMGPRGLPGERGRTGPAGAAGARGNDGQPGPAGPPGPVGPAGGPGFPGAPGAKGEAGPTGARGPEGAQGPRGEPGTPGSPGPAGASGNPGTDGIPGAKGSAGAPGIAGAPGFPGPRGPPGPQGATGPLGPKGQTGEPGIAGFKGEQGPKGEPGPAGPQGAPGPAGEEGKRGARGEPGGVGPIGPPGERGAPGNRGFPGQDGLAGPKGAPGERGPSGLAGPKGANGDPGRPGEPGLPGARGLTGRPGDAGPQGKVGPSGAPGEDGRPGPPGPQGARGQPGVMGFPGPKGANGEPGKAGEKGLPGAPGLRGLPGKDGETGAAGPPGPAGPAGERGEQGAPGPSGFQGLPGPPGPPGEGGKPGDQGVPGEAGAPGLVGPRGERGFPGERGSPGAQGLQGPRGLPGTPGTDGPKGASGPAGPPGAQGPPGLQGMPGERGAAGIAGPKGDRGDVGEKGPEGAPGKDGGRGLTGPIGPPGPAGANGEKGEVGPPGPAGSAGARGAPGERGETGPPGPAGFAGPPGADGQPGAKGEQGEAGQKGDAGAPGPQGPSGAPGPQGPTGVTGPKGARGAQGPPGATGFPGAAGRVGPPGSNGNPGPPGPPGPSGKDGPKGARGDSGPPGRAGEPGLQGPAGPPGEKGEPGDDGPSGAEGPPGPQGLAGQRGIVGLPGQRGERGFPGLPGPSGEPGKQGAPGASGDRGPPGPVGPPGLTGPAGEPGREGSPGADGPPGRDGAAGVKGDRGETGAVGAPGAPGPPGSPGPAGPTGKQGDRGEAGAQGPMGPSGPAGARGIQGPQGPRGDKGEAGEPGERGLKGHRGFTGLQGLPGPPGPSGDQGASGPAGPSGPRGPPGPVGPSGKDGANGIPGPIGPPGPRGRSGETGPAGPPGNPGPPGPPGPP
# Procedure: as §1
# osteonectin = biological target: T3, osteonectin (Homo sapiens, UniProt P09486); test: as above; assay type: biochemical; conditions: for reactivity / normalized band intensity on western blot: osteonectin, 500 μM conjugate, 0.05 U/mL tTG, 30 min at 37° C.; for number of conjugate molecules coupled per protein (MALDI-TOF): osteonectin with tTG
# T3 construct: purchased Biodesign, Saco, Me
# T3 sequence (P09486 18-303): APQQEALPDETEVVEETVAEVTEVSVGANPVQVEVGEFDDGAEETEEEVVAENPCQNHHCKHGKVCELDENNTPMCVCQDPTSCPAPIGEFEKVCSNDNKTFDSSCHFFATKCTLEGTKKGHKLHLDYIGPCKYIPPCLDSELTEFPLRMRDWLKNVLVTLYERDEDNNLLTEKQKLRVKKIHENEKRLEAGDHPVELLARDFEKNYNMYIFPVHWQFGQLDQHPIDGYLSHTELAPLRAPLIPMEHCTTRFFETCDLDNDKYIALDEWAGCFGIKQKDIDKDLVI
# Procedure: as §1
# osteopontin = biological target: T4, osteopontin (Homo sapiens, UniProt P10451); test: as above; assay type: biochemical; conditions: for reactivity / normalized band intensity on western blot: osteopontin, 500 μM conjugate, 0.05 U/mL tTG, 30 min at 37° C.; for number of conjugate molecules coupled per protein (MALDI-TOF): osteopontin with tTG
# T4 construct: purchased R&D Systems, Minneapolis, Minn
# T4 sequence (P10451 17-314, species assumed): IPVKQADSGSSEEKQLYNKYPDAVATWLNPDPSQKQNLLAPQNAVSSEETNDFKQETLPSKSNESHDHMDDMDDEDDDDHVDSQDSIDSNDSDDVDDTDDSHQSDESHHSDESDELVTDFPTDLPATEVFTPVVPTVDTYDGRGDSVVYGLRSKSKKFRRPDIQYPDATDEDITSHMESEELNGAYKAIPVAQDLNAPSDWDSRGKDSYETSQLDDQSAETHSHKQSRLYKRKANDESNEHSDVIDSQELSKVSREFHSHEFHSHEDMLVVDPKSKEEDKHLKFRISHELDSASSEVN
# Procedure: as §1
# cartilage = conditions: for average depth of peptide coupling: with tTG, chondroitinase ABC digested cartilage, along the cut edge
# Procedure: For the coupling of peptide conjugates to cartilage sections, osteochondral plugs were extracted from adult bovine metacarpophalangeal joints using a hole punch with a diameter of 0.793 cm. Samples were then frozen in tissue freezing media and stored at −80° C. until use. Vertical sections (25 μm), which included the articular surface as well as a portion of the underlying bone, were cut using a cryostat (Microm HM505N, Carl Zeiss) and the freezing media was removed with 3 washes of Tris buffered saline (TBS) (50 mM Tris, 100 mM NaCl) at pH 7.4. For the penetration studies, four millimeter by two millimeter rectangular samples of cartilage were excised from adult bovine metacarpophalangeal joint to a depth of 200-250 microns from the articular surface. Samples were frozen as described earlier for later use, at which time they were thawed and rinsed in TBS.
# Four millimeter by two millimeter rectangular samples of cartilage were thawed and rinsed, after which the chondroitinase ABC digestion and tTG reactions with the peptide and peptide-PEG conjugates were performed as stated above. […] The samples were then frozen in tissue freezing media followed by cutting using a cryostat. Twenty micron thick vertical sections were collected from each cartilage piece, rinsed in TBS, blocked with 1% BSA TBS containing 0.1% Tween (TBST), and incubated with peroxidase conjugated anti-biotin antibody at 5 μg/mL in 1% BSA in TBS-T for 2 hours at room temperature. Samples were rinsed 4 times with TBS and 4 times with distilled water. Finally, the anti-biotin antibody was detected using a DAB kit which contains the peroxidase substrate 3,3′-diaminobenzidine yielding a brown color. Samples were imaged using a Leica microscope (brightfield) and a SPOT RT digital camera.
# Adobe Photoshop (Adobe, Inc, San Jose, Calif.) was used to measure the depth to which the peptide and peptide-PEG conjugates were detected. The depth of staining into the cartilage along the cut surface perpendicular to the articular surface was measured at distances of 60, 120 and 180 microns from the articular surface for each sample. The average depth of staining for each sample was calculated from these three measurements. For each peptide and peptide-PEG conjugate, an overall mean depth of staining was determined from the measurements of three samples.
# In a separate series of experiments, 2 mm by 4 mm by 200-250 μm pieces of cartilage were incubated with each peptide-PEG conjugate and tTG. At the completion of the reaction, the cartilage pieces were frozen and sectioned and the coupled peptide conjugates were detected with a perioxidase anti-biotin antibody. The bound antibody was detected with DAB reagent which forms a brown precipitate in the presence of perioxidase. […] The depth of peptide penetration and coupling was measured along the cut edge at 60, 120, and 180 μm from the articular surface as shown schematically in FIG. 6.
# [2] = Hydrolysis of the hydrocortisone prodrug in normal synovial fluid; assay type: in vitro ADME, bovine
# Procedure: A 30 μL portion of each sample was collected at 0.5, 1, 2, 4, 7, 24, and 48 hours and added to a 60 μL mixture of water:acetonitrile:TFA (79:20:1) to prevent further hydrolysis. This solution also contained 2 mM 6α-methyl prednisolone as an internal standard. The samples were then stored at −20° C. until analyzed with RP-HPLC and eluted with a linear gradient of 24-55% acetonitrile in water with 0.1% TFA. The amount of hydrocortisone hydrolyzed from the prodrug was determined by comparing its peak area to that of 6α-methyl prednisolone. The T50% of the prodrug was calculated from 0.693/S, where S is the mean slope giving the best correlation coefficient in the linear part of the logarithmic curve of unhydrolyzed prodrug (1-[hydrocortisone]) versus time. […] Thirty microliter samples were collected at 10, 20, 30, and 60 minutes and analyzed as previously described.
# [3] = Release of hydrocortisone from coupled prodrugs on the articular surface of cartilage
# Procedure: After the overnight rinse in Buffer 2 with protease inhibitors and the subsequent washes with Buffer 1, each sample was incubated in 100 μL of sterile Buffer 1, normal bovine synovial fluid, or human osteoarthritic synovial fluid at 37° C. […] At the end of the experiment, the samples were digested and analyzed as previously described.
# [4] = system: articular surface of cartilage; test: Coupling of hydrocortisone prodrugs to the articular surface of cartilage via tTG; assay type: biochemical, bovine; conditions: in the absence of tTG
# Procedure: Modified tissue samples were immersed in tissue freezing media and frozen at −80° C. until use. Tissue slices (25 μm thick) were cut using a cryostat (Microm HM505N, Carl Zeiss) and the freezing media was removed with 3 washes of Buffer 1. Blocking was performed with 4% goat serum in Buffer 1 (blocking buffer) for 1 hour at room temperature. The tissue sections were then incubated with 10 μg/mL mouse anti-hydrocortisone antibody for 1.5 h in the blocking buffer at room temperature, rinsed 3 times with Buffer 1 for 5 minutes each, and then incubated with fluorescein conjugated goat anti-mouse antibody (1/200) in blocking buffer for 1 hour. Samples were rinsed again with Buffer 1 and then imaged using a Leica epifluorescent microscope (λex=495 nm, λem=520 nm for fluorescein) and a SPOT RT digital camera (Diagnostic Instruments, Sterling Heights, Mich.).
# tTG = biological target: T5, tTG (UniProt P08587); conditions: reactivity with the enzyme (tTG); cited from earlier work
# T5 sequence (P08587 1-690): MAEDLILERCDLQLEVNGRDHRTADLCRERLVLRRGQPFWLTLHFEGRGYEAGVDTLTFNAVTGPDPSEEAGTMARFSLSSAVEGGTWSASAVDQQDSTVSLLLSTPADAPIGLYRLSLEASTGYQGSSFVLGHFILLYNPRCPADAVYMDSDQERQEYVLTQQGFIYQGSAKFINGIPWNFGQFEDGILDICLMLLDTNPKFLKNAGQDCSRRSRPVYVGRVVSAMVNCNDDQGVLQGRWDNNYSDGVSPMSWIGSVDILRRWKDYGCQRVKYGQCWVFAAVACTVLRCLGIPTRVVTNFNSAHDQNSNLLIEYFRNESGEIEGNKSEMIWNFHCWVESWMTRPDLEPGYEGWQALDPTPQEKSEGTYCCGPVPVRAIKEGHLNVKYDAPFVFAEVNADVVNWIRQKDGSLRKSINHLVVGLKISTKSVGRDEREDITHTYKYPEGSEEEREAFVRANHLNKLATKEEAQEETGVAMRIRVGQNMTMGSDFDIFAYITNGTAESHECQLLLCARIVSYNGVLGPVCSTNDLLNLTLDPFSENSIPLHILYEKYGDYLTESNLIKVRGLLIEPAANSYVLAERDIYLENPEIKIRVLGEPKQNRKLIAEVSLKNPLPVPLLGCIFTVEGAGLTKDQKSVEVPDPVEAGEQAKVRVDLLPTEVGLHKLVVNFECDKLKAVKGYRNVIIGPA
# [5] = in the presence of tTG, 50 μM conjugate, 0.5 U/mL tTG, 30 min at 37° C.
Compound,coupling to cartilage (anti-biotin fluorescence) (cartilage sections; [5]),reactivity / normalized band intensity on western blot (Fibronectin),reactivity / normalized band intensity on western blot (collagen II),reactivity / normalized band intensity on western blot (osteonectin),reactivity / normalized band intensity on western blot (osteopontin),average depth of peptide coupling (cartilage),other results
Biotin-FKG-HA,–,–,–,–,–,–,anti-biotin antibody staining of tissue surface [1]: intense staining
Biotin-(EO)2-FOG-NH2 [B2O],no coupling was detected,did not demonstrate crosslinking,did not demonstrate crosslinking,did not demonstrate crosslinking,did not demonstrate crosslinking,–,–
Biotin-(EO)2-GQQQLG-NH2 [B2Q],enzymatically crosslinked to the cartilage sections,–,less reactive toward collagen II in solution,–,significantly greater normalized band intensity than the B2K and B72K,9.8 μm,coupling to cartilage (anti-biotin fluorescence) (cartilage sections; in the absence of tTG): no observed fluorescence
Biotin-(EO)2-FKG-NH2 [B2K],enzymatically crosslinked to the cartilage sections,statistically greater than for B2Q or B72Q,statistically greater than for B2Q or B72Q; also recorded: reactive toward collagen II,statistically greater than for B2Q or B72Q,–,13 μm,coupling to cartilage (anti-biotin fluorescence) (cartilage sections; in the absence of tTG): no observed fluorescence; depth of staining (cartilage; undigested cartilage tissue treated with tTG): 5.8 microns
"C[C@]12CCC(=O)C=C1CC[C@@H]1[C@@H]2[C@@H](O)C[C@@]2(C)[C@H]1CC[C@]2(O)C(=O)COC(=O)CCC(=O)NCC(=O)N[C@@H](Cc1ccccc1)C(=O)N[C@@H](CCCCN)C(=O)NCC(=O)O [TRIP-C, Hydrocortisone-GFKG prodrug] (X1-GFKG-OH)",–,–,–,–,–,–,"T50% ([2]; 1.0 mM, 75% normal synovial fluid in Buffer 1, 37° C.): 11.1 min; times more rapid hydrolysis in synovial fluid than in Buffer 1 ([2]; 37° C.): 4; hydrocortisone released from tissue-bound prodrug ([3]; 4 to 48 hours, 37° C., Buffer 1, bovine synovial fluid, human OA synovial fluid): statistical increase in the amount of hydrocortisone released; hydrocortisone hydrolysis from coupled prodrug, TRIP-C compared with TRIP-PC ([3]; any of the fluids utilized): no difference in hydrocortisone hydrolysis"
C[C@]12CCC(=O)C=C1CC[C@@H]1[C@@H]2[C@@H](O)C[C@@]2(C)[C@H]1CC[C@]2(O)C(=O)CO [hydrocortisone],–,–,–,–,–,–,"immunofluorescence on articular surface (anti-hydrocortisone) ([4]; 1.0 mM): no immunofluorescence was detected; nonspecific adsorption, hydrocortisone detected on the tissue surface [4]: minimal amount of hydrocortisone detected"
Biotin-PEG-FKG-NH2 [B72K],enzymatically crosslinked to the cartilage sections,statistically greater than for B2Q or B72Q,statistically greater than for B2Q or B72Q; also recorded: reactive toward collagen II,statistically greater than for B2Q or B72Q,–,9.8 μm,number of conjugate molecules coupled per protein (MALDI-TOF) (osteonectin): up to 4; number of conjugate molecules coupled per protein (MALDI-TOF) (osteopontin): one
GQQQLG (GQQQLG-NH2) [glutamine (acyl donor) peptide substrate of tTG],bind to cartilage surfaces via tTG,–,–,–,–,–,specificity (tTG): 34.1 mM⁻¹ min⁻¹
Biotin-PEG-GQQQLG-NH2 [B72Q],enzymatically crosslinked to the cartilage sections,–,less reactive toward collagen II in solution,–,–,8.6 μm,number of conjugate molecules coupled per protein (MALDI-TOF) (osteonectin): up to 3; number of conjugate molecules coupled per protein (MALDI-TOF) (osteopontin): up to two
Biotin-PEG-G-NH2 [B72],lack of fluorescence,did not demonstrate crosslinking,did not demonstrate crosslinking,did not demonstrate crosslinking,did not demonstrate crosslinking,–,–
Biotin-(EO)2-GNNNLG-NH2 [B2N],no coupling was detected,did not demonstrate crosslinking,did not demonstrate crosslinking,did not demonstrate crosslinking,did not demonstrate crosslinking,–,–
FKG,bind to cartilage surfaces via tTG,–,–,–,–,–,specificity (tTG): 560 mM⁻¹ min⁻¹

# — patent publication US8426179B2, “Synthetic peptide and peptide conjugates and related tissue coupling methods via transglutaminase enzyme” (priority 2007, dated 2013)
